In ChEMBL document CHEMBL3232999, “Computer-aided identification of novel 3,5-substituted rhodanine derivatives with activity against Staphylococcus aureus DNA gyrase” (Bioorg Med Chem, 2014):
In brackets after ≈: the same amount, converted by molar mass. Each block holds one compound with its values, some of them ahead of it. Activity calls are given as the source filed them. No cut-off for these calls is given here.

Experiments:
Staphylococcus aureus [1] = experiment: Antimicrobial activity against methicillin-resistant Staphylococcus aureus ATCC 33592 after 24 hrs by two-fold serial dilution method; format: functional; details: ATCC 33592, 24 h
Staphylococcus aureus [2] = experiment: Antimicrobial activity against Staphylococcus aureus ATCC 6538 after 24 hrs by two-fold serial dilution method; format: functional; details: ATCC 6538, 24 h
Staphylococcus aureus [3] = experiment: Antimicrobial activity against Staphylococcus aureus ISP 794 after 24 hrs by two-fold serial dilution method; format: functional; details: ISP 794, 24 h
Staphylococcus aureus [4] = experiment: Antimicrobial activity against Staphylococcus aureus carolina after 24 hrs by two-fold serial dilution method; format: functional
Escherichia coli [5] = experiment: Antimicrobial activity against Escherichia coli MG1655 after 24 hrs by two-fold serial dilution method; format: functional; details: MG1655, 24 h
[6] = molecular target: T1, DNA gyrase (Staphylococcus aureus) (UniProt P0A0K8+P20831); experiment: Inhibition of Staphylococcus aureus DNA gyrase-mediated supercoiling of relaxed DNA using N0471S as substrate at 160 to 500 uM after 30 mins by using […] staining-based agarose gel electrophoresis; format: protein-complex assay
[7] = molecular target: T1, DNA gyrase (Staphylococcus aureus); experiment: Inhibition of Staphylococcus aureus DNA gyrase-mediated supercoiling of relaxed DNA using N0471S as substrate at 20 uM after 30 mins by using […] staining-based agarose gel electrophoresis; format: protein-complex assay
Escherichia coli [8] = experiment: Inhibition of Escherichia coli DNA gyrase-mediated supercoiling of relaxed DNA using N0471S as substrate after 30 mins by using […] staining-based agarose gel electrophoresis
DNA gyrase subunit B = DNA gyrase subunit B (Staphylococcus aureus, UniProt P0A0K8); experiment: Inhibition of Staphylococcus aureus DNA gyrase subunit B ATPase activity assessed as consumption of inorganic phosphate by PNP-based absorbance assay
[9] = molecular target: DNA gyrase subunit B (Staphylococcus aureus) (UniProt P0A0K8); experiment: Inhibition of Staphylococcus aureus DNA gyrase subunit B ATPase activity assessed as consumption of inorganic phosphate at 30 uM by PNP-based absorbance assay relative to control; values are per cent of control
[10] = molecular target: DNA gyrase subunit B (Staphylococcus aureus) (UniProt P0A0K8); experiment: Inhibition of Staphylococcus aureus DNA gyrase subunit B ATPase activity assessed as consumption of inorganic phosphate at 10 uM by PNP-based absorbance assay relative to control; values are per cent of control
[11] = molecular target: DNA gyrase subunit B (Staphylococcus aureus) (UniProt P0A0K8); experiment: Inhibition of Staphylococcus aureus DNA gyrase subunit B ATPase activity assessed as consumption of inorganic phosphate at 300 uM by PNP-based absorbance assay relative to control; values are per cent of control
[12] = molecular target: DNA gyrase subunit B (Staphylococcus aureus) (UniProt P0A0K8); experiment: Inhibition of Staphylococcus aureus DNA gyrase subunit B ATPase activity assessed as consumption of inorganic phosphate at 100 uM by PNP-based absorbance assay relative to control; values are per cent of control
[13] = molecular target: T1, DNA gyrase (Staphylococcus aureus); experiment: Inhibition of Staphylococcus aureus DNA gyrase-mediated supercoiling of relaxed DNA using N0471S as substrate at 160 uM after 30 mins by using […] staining-based agarose gel electrophoresis; format: protein-complex assay

SMILES: Cc1cccc(NS(=O)(=O)c2cc(C(N)=O)ccc2Cl)c1C
MIC (Staphylococcus aureus [1]): 62.5 mg/L (≈ 184 µM) | MIC (Staphylococcus aureus [2]): 62.5 mg/L (≈ 184 µM)

SMILES: C/C(=N\NC(=O)c1nnn(-c2nonc2N)c1CN1CCc2ccccc21)c1ccc(O)cc1O
MIC (Staphylococcus aureus [1]): 525 mg/L (≈ 1100 µM) | MIC (Staphylococcus aureus [2]): 525 mg/L (≈ 1100 µM)

SMILES: COc1cccc([C@@H]2Nc3c(ccc(C(=O)O)c3C)[C@H]3C=CC[C@H]32)c1
MIC (Staphylococcus aureus [1]): 125 mg/L (≈ 373 µM) | MIC (Staphylococcus aureus [2]): 62.5 mg/L (≈ 186 µM)

SMILES: O=C1C[C@H](c2cccc(O)c2)Nc2ccc3ccccc3c21
MIC (Staphylococcus aureus [1]): 62.5 mg/L (≈ 216 µM) | MIC (Staphylococcus aureus [2]): 62.5 mg/L (≈ 216 µM)

MIC (Staphylococcus aureus [3]): 159 µM (≈ 75.1 µg/mL) | MIC (Staphylococcus aureus [4]): 159 µM (≈ 75.1 µg/mL) | MIC (Escherichia coli [5]): > 100 mg/L | inhibition [6]: Active | inhibition [7]: inactive | inhibition (Escherichia coli [8]): inactive | IC50 (DNA gyrase subunit B): 30 µM | residual activity [9]: 66% | residual activity [10]: 84% | residual activity [11]: 23% | residual activity [12]: 23%
SMILES: O=C(O)C[C@H](C(=O)O)N1C(=O)/C(=C\c2ccc(-c3cc(Cl)ccc3Cl)o2)SC1=S

MIC (Staphylococcus aureus [3]): 31 µM (≈ 12.5 µg/mL) | MIC (Staphylococcus aureus [4]): 46.5 µM (≈ 18.8 µg/mL) | MIC (Escherichia coli [5]): > 100 mg/L | inhibition [7]: inactive | inhibition (Escherichia coli [8]): inactive | IC50 (DNA gyrase subunit B): 100 µM | residual activity [9]: 76% | residual activity [10]: 84% | residual activity [11]: 25% | residual activity [12]: 52%
SMILES: O=C(O)C[C@H](c1ccccc1)N1C(=O)/C(=C/c2ccccc2Cl)SC1=S

SMILES: COc1cc([C@@H]2C3=C(CCCC3=O)Nc3[nH]c(SCc4ccccc4Cl)nc(=O)c32)ccc1O
MIC (Staphylococcus aureus [1]): 500 mg/L (≈ 1010 µM) | MIC (Staphylococcus aureus [2]): 500 mg/L (≈ 1010 µM)

MIC (Staphylococcus aureus [3]): 13.5 µM (≈ 4.61 µg/mL) | MIC (Staphylococcus aureus [4]): 27 µM (≈ 9.22 µg/mL) | MIC (Escherichia coli [5]): > 100 mg/L | inhibition [13]: Active | inhibition (Escherichia coli [8]): inactive
SMILES: CCc1ccccc1N1C(=O)/C(=C/c2cccc(O)c2)SC1=S

SMILES: CCOC(=O)C1=c2s/c(=C/c3ccccc3I)c(=O)n2C(N)=C(C#N)[C@@H]1c1ccccc1I
MIC (Staphylococcus aureus [1]): 264 mg/L (≈ 387 µM) | MIC (Staphylococcus aureus [2]): 264 mg/L (≈ 387 µM)

SMILES: COc1ccc(C(=O)C2=C(O)C(=O)N(CCc3c[nH]c4ccccc34)[C@@H]2c2ccccc2Cl)cc1
MIC (Staphylococcus aureus [1]): 253 mg/L (≈ 520 µM) | MIC (Staphylococcus aureus [2]): 253 mg/L (≈ 520 µM)

SMILES: NC(=O)NC(=O)COC(=O)c1ccc(Cl)c(S(=O)(=O)N(Cc2ccccc2)c2ccc(Cl)cc2)c1
MIC (Staphylococcus aureus [1]): 500 mg/L (≈ 932 µM) | MIC (Staphylococcus aureus [2]): 125 mg/L (≈ 233 µM)

SMILES: CC(=O)Oc1ccc([C@@H]2Oc3nc(SCc4ccccc4Cl)nnc3-c3ccccc3N2C(C)=O)cc1Br
MIC (Staphylococcus aureus [1]): 512 mg/L (≈ 838 µM) | MIC (Staphylococcus aureus [2]): 512 mg/L (≈ 838 µM)

SMILES: COc1cc([C@H]2OC[C@H]3[C@H]2CO[C@@H]3c2ccc(O)c(OC)c2)ccc1O
MIC (Staphylococcus aureus [1]): 500 mg/L (≈ 1400 µM) | MIC (Staphylococcus aureus [2]): 62.5 mg/L (≈ 174 µM)

SMILES: Cc1cccc([C@]2(C)CC(C)(C)N(C(=O)CSc3nc[nH]n3)c3ccccc32)c1
MIC (Staphylococcus aureus [1]): 500 mg/L (≈ 1230 µM) | MIC (Staphylococcus aureus [2]): 125 mg/L (≈ 307 µM)

SMILES: COc1ccc(N(CC(=O)Nc2ccccc2C(N)=O)S(=O)(=O)c2ccccc2)c(OC)c1
MIC (Staphylococcus aureus [1]): 250 mg/L (≈ 532 µM) | MIC (Staphylococcus aureus [2]): 62.5 mg/L (≈ 133 µM)

SMILES: CO[C@@H]1[C@@H](OC(N)=O)[C@@H](O)[C@H](Oc2ccc3c(O)c(NC(=O)c4ccc(O)c(CC=C(C)C)c4)c(=O)oc3c2C)OC1(C)C [NOVOBIOCIN]
MIC (Staphylococcus aureus [3]): < 1.27 µM | MIC (Staphylococcus aureus [4]): < 1.27 µM | MIC (Staphylococcus aureus [1]): < 1.95 mg/L | inhibition (Escherichia coli [8]): inactive
